Laboratory results taken from patent US7026281B1, “Antagonistic analogs of GH-RH inhibiting IGF-I and -II” (The Administrators of the Tulane Educational Fund, priority 1998, dated 2006).
Marks after values point to notes of the source that are not given here. Square brackets hold non-standard residues; d marks the D form. Peptide text beside a SMILES is read from it. * marks the point of attachment. Phe(4-Cl) = N[C@@H](Cc1ccc(Cl)cc1)C(=O)O; hArg = N=C(N)NCCCC[C@H](N)C(=O)O; Nle = CCCC[C@H](N)C(=O)O; Abu = CC[C@H](N)C(=O)O; PhAc = O=C(Cc1ccccc1)*

Columns and labels:
[1] = tested on: GH release stimulated by hGH-RH(1–29)NH2; assay: In vivo inhibition of serum GH response in rats; parameters: species or system rat; details: for Inhibition of the GH release stimulated by hGH-RH(1–29)NH2 (in words): 80 μg/kg i.v., rats
Method: GH-RH antagonistic effect of the analogs was tested on young male Sprague-Dawley rats (200–250 g). In each experiment, 5 groups of 7 animals each were used. The compounds (80 μg/kg) and GH-RH(1–29)NH2 (3 μg/kg) were dissolved in 5.5% mannitol and given intravenously to the jugular vein of the rats under Nembutal anesthesia. The time elapsed between the administrations of the antagonist and GH-RH varied between groups, according to the following schedule. The first group of animals received GH-RH injection 5 min after the administration of the antagonist; for the second, third and fourth group of animals, the time interval elapsed between the injection of the antagonist and that of GH-RH was 15, 30, and 60 min, respectively. The control group was first injected with the solvent alone instead of the antagonist, followed by a GH-RH injection 5 min later.
0.4 mL blood samples were taken for GH RIA before the administration of the antagonist (“blood0”), and 5 min after the injection of GH-RH (“blood1”). The GH response in each group was calculated as rGH=(GHblood1/GHblood0), mean±S.E.M. of the individual differences. Relative inhibition of GH response (%) in each group treated was calculated as […].

[2] = tested on: HT-29 human colon cancers; assay: HT-29 human colon cancer xenografts in nude mice; assay type: in vivo; details: 20 μg daily sc., 6 weeks; for Final tumor volume (mm^3) / Tumor weight: nude mice
Method: HT-29 human colon cancers were transplanted sc. into male nude mice. 19 days after transplantation, the mice were divided into groups of 10 animals each, and the treatment was started. The mice received single daily injections of various GH-RH antagonists sc. at 20 μg dose per day for 6 weeks. Tumors were measured regularly, and tumor volume was calculated. The mice were sacrificed at the end of experiment and tumor weights were measured.

[3] = tested on: hGH-RH(1–29)NH2 induced GH release; assay: Inhibition of GH release in superfused rat pituitary system; assay type: cell-based; details: antagonist 30 nM; for Inhibition of GH release (%) 30 min: 1 nM hGH-RH(1–29)NH2 30 min later; for Inhibition of GH release (%) 60 min: 1 nM hGH-RH(1–29)NH2 60 min later; for Inhibition of GH release (%) 90 min: 1 nM hGH-RH(1–29)NH2 90 min later; for Inhibition of GH release (%) 120 min: 1 nM hGH-RH(1–29)NH2 120 min later; for Inhibition of GH release (%) 0 min: 1 nM hGH-RH(1–29)NH2 at 0 min
Outline: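 Superfused rat pituitary cells preincubated 9 min with peptide, then challenged for 3 min with 1 nM hGH-RH(1–29)NH2 at 0, 30, 60, 90 and 120 min. Rat GH measured by double-antibody RIA; net integral GH responses expressed as percent of the original 1 nM GH-RH-induced response.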

[4] = biological target: T1, rat pituitary GH-RH receptors (Rattus norvegicus, UniProt Q02644); assay: GH-RH radioreceptor binding assay, rat anterior pituitary membrane homogenates; details: for Ki: competition with [His1,125I-Tyr10,Nle27]hGH-RH(1–32)NH2; for R.A. (relative affinity compared to Standard antagonist): ratio of Ki values
T1 construct: from tissue; host or cells: anterior pituitary of male Sprague-Dawley rats, crude membrane homogenates
T1 sequence (Q02644 23-464): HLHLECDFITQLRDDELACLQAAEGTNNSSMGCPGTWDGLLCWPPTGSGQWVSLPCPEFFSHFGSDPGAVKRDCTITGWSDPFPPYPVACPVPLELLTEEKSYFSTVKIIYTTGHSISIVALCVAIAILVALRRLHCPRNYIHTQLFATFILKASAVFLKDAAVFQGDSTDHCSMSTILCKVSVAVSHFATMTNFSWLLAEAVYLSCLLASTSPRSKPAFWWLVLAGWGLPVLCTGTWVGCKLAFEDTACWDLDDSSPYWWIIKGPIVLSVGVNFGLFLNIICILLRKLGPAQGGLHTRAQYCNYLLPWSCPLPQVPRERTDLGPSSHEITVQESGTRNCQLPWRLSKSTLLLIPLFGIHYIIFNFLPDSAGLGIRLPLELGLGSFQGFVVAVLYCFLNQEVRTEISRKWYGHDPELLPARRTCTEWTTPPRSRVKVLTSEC
Outline: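 Antagonists competed with [His^1,^125I-Tyr^10,Nle^27]hGH-RH(1–32)NH2 for binding to crude anterior pituitary membranes from male Sprague-Dawley rats, with γ-counting of the pellet. Ki came from Munson–Rodbard analysis. Relative affinity is the Ki of the test antagonist divided by the Ki of standard [Ac-Tyr^1,D-Arg^2]hGH-RH(1–29)NH2.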

[5] = antagonist 80 μg/kg i.v. 5 min before GH-RH
[6] = antagonist 80 μg/kg i.v. 15 min before GH-RH
[7] = antagonist 80 μg/kg i.v. 15 min before GH-RH 3 μg/kg
[8] = antagonist 80 μg/kg i.v. 30 min before GH-RH
[9] = antagonist 80 μg/kg i.v. 30 min before GH-RH 3 μg/kg
[10] = antagonist 80 μg/kg i.v. 60 min before GH-RH
[11] = antagonist 80 μg/kg i.v. 60 min before GH-RH 3 μg/kg
[12] = rGH=GHblood1/GHblood0, antagonist 80 μg/kg i.v. 5 min before GH-RH 3 μg/kg

Ki [4] [nM]	R.A. (relative affinity compared to Standard antagonist) [4]	Compound	Inhibition of the GH release stimulated by hGH-RH(1–29)NH2 (in words) [1]	Relative inhibition % of GH response [1, 5] [%]	Relative inhibition % of GH response [1, 6] [%]	GH response mean ± S.E.M. [1, 7]	Relative inhibition % of GH response [1, 8] [%]	GH response mean ± S.E.M. [1, 9]	Relative inhibition % of GH response [1, 10] [%]	GH response mean ± S.E.M. [1, 11]	GH response mean ± S.E.M. [1, 12]	Inhibitory effect on HT-29 human colon cancers (in words) [2]	Final tumor volume (mm^3) [2]	Tumor weight [2] [mg]	Inhibition of GH release (%) 30 min [3] [%]	Inhibition of GH release (%) 60 min [3] [%]	Inhibition of GH release (%) 90 min [3] [%]	Inhibition of GH release (%) 120 min [3] [%]	Inhibition of GH release (%) 0 min [3] [%]
0.058	51	CCCC[C@H](NC(=O)[C@@H](NC(=O)[C@H](CC(=O)O)NC(=O)[C@H](CCC(N)=O)NC(=O)[C@H](CC(C)C)NC(=O)[C@H](CC(C)C)NC(=O)[C@H](CCCCN)NC(=O)[C@H](CCCNC(=N)N)NC(=O)[C@H](C)NC(=O)[C@H](CO)NC(=O)[C@H](CC(C)C)NC(=O)[C@H](CCC(N)=O)NC(=O)[C@H](CC)NC(=O)[C@H](CC(C)C)NC(=O)[C@@H](NC(=O)[C@H](CCCCN)NC(=O)[C@H](CCCNC(=N)N)NC(=O)[C@H](Cc1ccc(O)cc1)NC(=O)[C@H](CCCNC(=N)N)NC(=O)[C@H](CC(N)=O)NC(=O)[C@@H](NC(=O)[C@H](Cc1ccc(Cl)cc1)NC(=O)[C@@H](NC(=O)[C@H](C)NC(=O)[C@H](CC(=O)O)NC(=O)[C@@H](CCCNC(=N)N)NC(=O)[C@H](Cc1ccc(O)cc1)NC(=O)Cc1ccccc1)[C@@H](C)CC)[C@@H](C)O)C(C)C)[C@@H](C)CC)C(=O)N[C@@H](CO)C(=O)N[C@H](CCCNC(=N)N)C(N)=O [Peptide 9, [PhAc^0, D-Arg^2, Phe(pCl)^6, Arg^9, Abu^15, Nle^27, D-Arg^29]hGH-RH(1–29)NH2] (PhAc-Y[dR]DAI[Phe(4-Cl)]TNRYRKVL[Abu]QLSARKLLQDI[Nle]S[dR]-NH2)	strong and long-lasting inhibition	75	59	3.85 ± 0.50	67	3.34 ± 0.30	10	7.32 ± 1.16	2.75 ± 0.75	smaller but still significant inhibition	1194 ± 506* mm^3	1383 ± 576	87	79	72	59	91
0.071	41	CCCC[C@H](NC(=O)[C@@H](NC(=O)[C@H](CC(=O)O)NC(=O)[C@H](CCC(N)=O)NC(=O)[C@H](CC(C)C)NC(=O)[C@H](CC(C)C)NC(=O)[C@H](CCCCN)NC(=O)[C@H](CCCNC(=N)N)NC(=O)[C@H](C)NC(=O)[C@H](CO)NC(=O)[C@H](CC(C)C)NC(=O)[C@H](CCC(N)=O)NC(=O)[C@H](CC)NC(=O)[C@H](CC(C)C)NC(=O)[C@@H](NC(=O)[C@H](CCCCN)NC(=O)[C@H](CCCNC(=N)N)NC(=O)[C@H](Cc1ccc(O)cc1)NC(=O)[C@H](CO)NC(=O)[C@H](CC(N)=O)NC(=O)[C@@H](NC(=O)[C@H](Cc1ccc(Cl)cc1)NC(=O)[C@@H](NC(=O)[C@H](C)NC(=O)[C@H](CC(=O)O)NC(=O)[C@@H](CCCNC(=N)N)NC(=O)[C@H](Cc1ccc(O)cc1)NC(=O)Cc1ccccc1)[C@@H](C)CC)[C@@H](C)O)C(C)C)[C@@H](C)CC)C(=O)N[C@H](CCCNC(=N)N)C(=O)N[C@@H](CCCCNC(=N)N)C(N)=O [Peptide 11, [PhAc^0, D-Arg^2, Phe(pCl)^6, Abu^15, Nle^27, D-Arg^28, Har^29]hGH-RH(1–29)NH2] (PhAc-Y[dR]DAI[Phe(4-Cl)]TNSYRKVL[Abu]QLSARKLLQDI[Nle][dR][hArg]-NH2)	strong and long-lasting inhibition	84	50	13.64 ± 1.41	40	16.04 ± 4.36	38	16.61 ± 6.02	5.15 ± 1.11	only little nonsignificant effect	1663 ± 610 mm^3	1849 ± 681	89	80	56	42	96
